Measurements: PubChem BioAssay AID330 (DTP/NCI, 2004)
Inconclusive results and toxic doses are left out. The calls were made as follows: active = survival T/C of 150% or more; inactive = T/C below 125% in these data.

Tested on: P388 leukemia ip, CD2F1 mice, survival T/C
Test: NCI In Vivo Anticancer Drug Screen. Data for tumor model P388 Leukemia (intraperitoneal) in CD2F1 (CDF1) mice
Conditions: endpoint: median survival time, higher = longer survival
Method in brief: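 Mice carrying the transplanted tumor received test compound or vehicle. Survival was recorded in each group, and the value is the treated-group measurement divided by that of the vehicle-treated control group.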

[1] = dose: 50.0 mg/kg/injection, schedule: Q01DX009 (ip), vehicle: saline with Tween-80
[2] = dose: 100.0 mg/kg/injection, schedule: Q01DX009 (ip), vehicle: saline with Tween-80
[3] = dose: 200.0 mg/kg/injection, schedule: Q01DX009 (ip), vehicle: saline with Tween-80
[4] = dose: 60.0 mg/kg/injection, schedule: Q01DX005 (ip), vehicle: saline with Tween-80
[5] = dose: 120.0 mg/kg/injection, schedule: Q01DX005 (ip), vehicle: saline with Tween-80
[6] = dose: 240.0 mg/kg/injection, schedule: Q01DX005 (ip), vehicle: saline with Tween-80
[7] = dose: 25.0 mg/kg/injection, schedule: Q01DX005 (ip), vehicle: saline with Tween-80
[8] = dose: 50.0 mg/kg/injection, schedule: Q01DX005 (ip), vehicle: saline with Tween-80
[9] = dose: 200.0 mg/kg/injection, schedule: Q01DX005 (ip), vehicle: saline with Tween-80
[10] = dose: 100.0 mg/kg/injection, schedule: Q01DX009 (ip), vehicle: saline
[11] = dose: 100.0 mg/kg/injection, schedule: Q01DX005 (ip), vehicle: saline with Tween-80

Measured: T/C

Oc1cc2c(ccc3ccccc32)c2c1CCC2
inactive: dose: 6.25 mg/kg/injection, schedule: Q01DX001 (ip), vehicle: Klucel (hydroxypropylcellulose) (HPC) 106 % of control | dose: 12.5 mg/kg/injection, schedule: Q01DX001 (ip), vehicle: Klucel (hydroxypropylcellulose) (HPC) 104 % of control | dose: 25.0 mg/kg/injection, schedule: Q01DX001 (ip), vehicle: Klucel (hydroxypropylcellulose) (HPC) 119 % of control

C/C=C(\C)C(=O)OC1CC(C)(O)C(=O)C(OC(=O)/C(C)=C/C)C2(C)CCC(O)(C(C)C)C12 (centres undefined)
inactive: [1] 105 % of control | [2] 101 % of control | [3] 100 % of control | dose: 400.0 mg/kg/injection, schedule: Q01DX009 (ip), vehicle: saline with Tween-80 95 % of control

CCOC(=O)C/C(C)=C1/N=C(c2ccccc2)OC1=O
inactive: [4] 91 % of control | [5] 91 % of control | [6] 92 % of control

COC1/C=C\C=C(/C)C(=O)NC2=CC(=O)C=C(C2=O)C(OC)C(C)CC(OC)C(OC)C(C)/C=C(/C)C1OC(N)=O (centres undefined)
inactive: dose: 3.0 mg/kg/injection, schedule: Q01DX009 (ip), vehicle: Klucel (hydroxypropylcellulose) (HPC) 92 % of control | dose: 6.0 mg/kg/injection, schedule: Q01DX009 (ip), vehicle: Klucel (hydroxypropylcellulose) (HPC) 101 % of control

CC(=O)/C(=C\c1ccccc1)C(=O)CCN(C)C
inactive: [7] 100 % of control | [8] 103 % of control

CSC(=O)/N=C(/NC(=O)c1ccccc1)SC
inactive: dose: 50.0 mg/kg/injection, schedule: Q01DX005 (ip), vehicle: Klucel (hydroxypropylcellulose) (HPC) 93 % of control | dose: 100.0 mg/kg/injection, schedule: Q01DX005 (ip), vehicle: Klucel (hydroxypropylcellulose) (HPC) 91 % of control | dose: 200.0 mg/kg/injection, schedule: Q01DX005 (ip), vehicle: Klucel (hydroxypropylcellulose) (HPC) 92 % of control

O=C1OC2C(O)COC2(N=Nc2ccc(Cl)cc2)/C1=N/Nc1ccccc1 (centres undefined)
inactive: dose: 6.25 mg/kg/injection, schedule: Q01DX005 (ip), vehicle: saline with Tween-80 104 % of control | dose: 12.5 mg/kg/injection, schedule: Q01DX005 (ip), vehicle: saline with Tween-80 93 % of control | [7] 89 % of control | [9] 90 % of control

COc1ccc2ccc(CCC(=O)O)cc2c1
inactive: dose: 12.5 mg/kg/injection, schedule: Q01DX009 (ip), vehicle: distilled water + Tween-80 100 % of control | dose: 25.0 mg/kg/injection, schedule: Q01DX009 (ip), vehicle: distilled water + Tween-80 100 % of control | dose: 50.0 mg/kg/injection, schedule: Q01DX009 (ip), vehicle: distilled water + Tween-80 94 % of control | dose: 100.0 mg/kg/injection, schedule: Q01DX009 (ip), vehicle: distilled water + Tween-80 99 % of control | dose: 200.0 mg/kg/injection, schedule: Q01DX009 (ip), vehicle: distilled water + Tween-80 108 % of control

O=C(O)CN(CCN(CC(=O)O)CC(=O)O)CC(=O)O
inactive: dose: 100.0 mg/kg/injection, schedule: Q04DX003 (ip), vehicle: saline 100 % of control

COc1ccc2nc3cc(Cl)ccc3c(NCCNCCNCCNc3c4ccc(Cl)cc4nc4ccc(OC)cc34)c2c1
inactive: [1] 115 % of control

COCCC(=NC(C)(C)C)Nc1c(Cl)cccc1Cl
inactive: dose: 50.0 mg/kg/injection, schedule: Q01DX009 (ip), vehicle: saline 110 % of control | [10] 108 % of control

C=C(C)CCCCOCOCCOC
inactive: [4] 99 % of control | [5] 99 % of control | [6] 97 % of control

CCOCCOC(=O)Nc1c(Cl)cccc1Cl
inactive: [4] 101 % of control | [5] 96 % of control | [6] 95 % of control

CN(C)c1nc(NC=O)nc(N(C)C)n1
inactive: dose: 50.0 mg/kg/injection, schedule: Q04DX002 (ip), vehicle: saline with Tween-80 99 % of control | dose: 100.0 mg/kg/injection, schedule: Q04DX002 (ip), vehicle: saline with Tween-80 99 % of control | dose: 200.0 mg/kg/injection, schedule: Q04DX002 (ip), vehicle: saline with Tween-80 100 % of control

CC(=O)OC1COC(Nc2cc(=O)n(C)c(=O)[nH]2)C(OC(C)=O)C1OC(C)=O (centres undefined)
inactive: dose: 100.0 mg/kg/injection, schedule: Q01DX001 (ip), vehicle: saline with Tween-80 101 % of control | dose: 200.0 mg/kg/injection, schedule: Q01DX001 (ip), vehicle: saline with Tween-80 100 % of control | dose: 400.0 mg/kg/injection, schedule: Q01DX001 (ip), vehicle: saline with Tween-80 95 % of control

CCOc1ccc(N=NC2C(=O)N(c3cccc(Cl)c3Cl)C(=S)N(c3ccc(OC)cc3)C2O)cc1 (centres undefined)
inactive: dose: 100.0 mg/kg/injection, schedule: Q01DX001 (ip), vehicle: Klucel (hydroxypropylcellulose) (HPC) 100 % of control | dose: 200.0 mg/kg/injection, schedule: Q01DX001 (ip), vehicle: Klucel (hydroxypropylcellulose) (HPC) 96 % of control | dose: 400.0 mg/kg/injection, schedule: Q01DX001 (ip), vehicle: Klucel (hydroxypropylcellulose) (HPC) 96 % of control

Cc1ccc2ccccc2[n+]1CC(=O)c1ccc([N+](=O)[O-])cc1
inactive: dose: 6.25 mg/kg/injection, schedule: Q01DX005 (ip), vehicle: Klucel (hydroxypropylcellulose) (HPC) 108 % of control | dose: 12.5 mg/kg/injection, schedule: Q01DX005 (ip), vehicle: Klucel (hydroxypropylcellulose) (HPC) 108 % of control | dose: 25.0 mg/kg/injection, schedule: Q01DX005 (ip), vehicle: Klucel (hydroxypropylcellulose) (HPC) 103 % of control | [8] 96 % of control | [11] 102 % of control | [9] 111 % of control

CC(=O)SCC(C)CCl (centres undefined)
inactive: dose: 100.0 mg/kg/injection, schedule: Q04DX003 (ip), vehicle: saline with Tween-80 100 % of control | dose: 200.0 mg/kg/injection, schedule: Q04DX003 (ip), vehicle: saline with Tween-80 109 % of control

CC(C)(C)CC(C)(C)c1ccc(O)cc1
inactive: dose: 66.0 mg/kg/injection, schedule: Q01DX009 (ip), vehicle: saline 100 % of control | [10] 100 % of control | dose: 150.0 mg/kg/injection, schedule: Q01DX009 (ip), vehicle: saline 122 % of control | dose: 200.0 mg/kg/injection, schedule: Q01DX009 (ip), vehicle: saline sonified 118 % of control

CCC1(CC2CCCN(C)C2)c2ccccc2Sc2ccccc21 (centres undefined)
inactive: dose: 12.5 mg/kg/injection, schedule: Q01DX005 (ip), vehicle: saline 98 % of control | dose: 25.0 mg/kg/injection, schedule: Q01DX005 (ip), vehicle: saline 98 % of control | dose: 50.0 mg/kg/injection, schedule: Q01DX005 (ip), vehicle: saline 91 % of control

CC(=O)C1CC2CN(C(=O)OCC(Cl)(Cl)Cl)C1C=C2c1ccccc1 (centres undefined)
inactive: dose: 100.0 mg/kg/injection, schedule: Q04DX002 (ip), vehicle: saline 91 % of control | dose: 200.0 mg/kg/injection, schedule: Q04DX002 (ip), vehicle: saline 94 % of control | dose: 400.0 mg/kg/injection, schedule: Q04DX002 (ip), vehicle: saline 94 % of control

C=C1CN(C(=O)c2ccccc2)C(=S)S1
inactive: [8] 108 % of control | [11] 108 % of control | [9] 103 % of control

CCOC(=O)C1=C(C(=O)c2ccc(OC)cc2)C(c2ccc(OC)c(OC)c2)C(C(=O)c2ccc(OC)cc2)=C(C(=O)OCC)N1
inactive: [4] 90 % of control | [5] 91 % of control

COc1ccc2c(c1)CCC1C2CCC2(C)C1CCC2(O)CCOS(=O)(=O)c1ccc(C)cc1 (centres undefined)
inactive: dose: 50.0 mg/kg/injection, schedule: Q01DX009 (ip), vehicle: Klucel (hydroxypropylcellulose) (HPC) 97 % of control | [1] 100 % of control | dose: 100.0 mg/kg/injection, schedule: Q01DX009 (ip), vehicle: Klucel (hydroxypropylcellulose) (HPC) 97 % of control | [2] 99 % of control | dose: 200.0 mg/kg/injection, schedule: Q01DX009 (ip), vehicle: Klucel (hydroxypropylcellulose) (HPC) 94 % of control | [3] 104 % of control
